Among the test systems are SNB-78 CNS; HOP-18 NSCLC; XF 498 CNS; DLD-1 colon; SR leukemia; LXFL 529 NSCLC; PC-3 prostate; 786-0 renal; BT-549 breast; HS 578T breast; MDA-MB-435.
What all share (test): NCI tumour cell line growth inhibition, 48 h

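Grown in 96-well plates, cells were treated for 48 hours with each compound at five concentrations. Insufficient inhibition: endpoint recorded as highest concentration tested. TGI denotes the concentration required for complete inhibition of growth.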 Some results are limits rather than exact numbers.

Take `S=P1(Sc2ccccc2)Oc2ccc3ccccc3c2-c2c(ccc3ccccc23)O1`: the TGI in the assay on SNB-78 CNS, with HOP-18 NSCLC, in the assay with XF 498 CNS and in the assay with DLD-1 colon was over 100 µM each time.

Consider `c1ccc2c3c(ccc2c1)-c1[nH]ncc1CCO3`, for which the TGI in the assay on SNB-78 CNS is over 100 µM; with HOP-18 NSCLC it was over 100 µM; in the assay with XF 498 CNS, 79.8 µM; in the assay on DLD-1 colon, over 100 µM.

On to `CC(C)(C)c1ccc2c(c1)OP1(Oc3c(Cl)cc(Cl)c4cccnc34)(O2)Oc2ccc(C(C)(C)C)cc2O1`, for which the TGI is over 86.8 µM in the assay on SNB-78 CNS, 32.4 µM in the assay on HOP-18 NSCLC, 26.7 µM in the assay with XF 498 CNS and 18.1 µM in the assay on DLD-1 colon.

For `O=C1c2ccccc2N(O)C1(c1ccccc1)C1CCCC=C1N1CCOCC1` (stereo not drawn), the TGI with SR leukemia, in the assay on LXFL 529 NSCLC, in the assay on SNB-78 CNS and in the assay with DLD-1 colon was over 100 µM each time.

As for `Cc1ncn(-c2ccccc2O)c1C`, the TGI in the assay with SR leukemia, in the assay with PC-3 prostate, in the assay with 786-0 renal, in the assay with BT-549 breast, in the assay on HS 578T breast and in the assay on MDA-MB-435 was over 100 µM throughout.

As for `CN(C)Cc1cc(Cl)c(O)c(CN(C)C)c1`, the TGI in the assay with SR leukemia, with PC-3 prostate, with 786-0 renal, in the assay with BT-549 breast, in the assay on HS 578T breast and with MDA-MB-435 was over 100 µM throughout.

For the compound `COc1c2c(c3c(c1OC)c(=O)c1ccccc1n3C)OCO2`, the TGI in the assay with SR leukemia, in the assay on PC-3 prostate, with 786-0 renal, with BT-549 breast, in the assay on HS 578T breast and in the assay on MDA-MB-435 was over 100 µM in each case.

Turning to `C=C(/C=C/C=C(\C)CCC=C(C)C)[C@@H]1CC[C@]2([C@H](CCCO)/C(=C(/C)C=O)CC[C@]2(C)O)[C@@H]1O`, the TGI worked out at 40.9 µM in the assay on SR leukemia; 33.7 µM with LXFL 529 NSCLC; 33.5 µM in the assay on SNB-78 CNS; 60.4 µM with HOP-18 NSCLC; 32.8 µM in the assay with XF 498 CNS; 38.7 µM with DLD-1 colon.

With `Cc1cn(C2CC(n3cc(Cn4ccc(=O)[nH]c4=O)nn3)C(CO)O2)c(=O)[nH]c1=O` (stereo not drawn), the TGI in the assay on PC-3 prostate, with BT-549 breast, with HS 578T breast and in the assay with MDA-MB-435 was over 100 µM throughout.

As for `COc1ccc(C2CC(c3c(O)ccc4ccccc34)=NN2)cc1OC` (stereo not drawn), the TGI is over 100 µM in the assay on PC-3 prostate, 16.1 µM in the assay with BT-549 breast, 7.43 µM in the assay with HS 578T breast and 11.6 µM in the assay on MDA-MB-435.

The values are drawn from PubChem BioAssay (NCI).
